SMILES | melting point
COc1ccc(OC(=O)NCc2ccc(Oc3ccccc3)cc2)cc1 | 89 to 91 °C
Cc1ccc(OC(=O)NCCc2ccc(-c3ccccc3)cc2)cc1 | 172 to 174 °C
O=C(NCc1ccc(-c2ccccc2)cc1)Oc1ccc(F)cc1 | 155 to 157 °C
O=C(NCc1ccc(-c2ccccc2)cc1)OCC(F)(F)F [Compound No. 1, 2,2,2-Trifluoroethyl 1,1′-biphenyl-4-ylmethylcarbamate] | 123 to 125 °C
O=C(NCc1ccc(Oc2ccccc2)cc1)OCC(F)(F)F [Compound No. 10, 2,2,2-Trifluoroethyl 4-phenyloxybenzylcarbamate] | 145 to 148 °C
O=C(NCCc1ccc(-c2ccccc2)cc1)OCC(F)(F)F [Compound No. 19, 2,2,2-Trifluoroethyl 2-(1,1′-biphenyl-4-yl)ethylcarbamate] | 79 to 81 °C

— US7696374B2, “Arylalklcarbamate derivatives, preparation method thereof and use of same in therapeutics” (Sanofi-Aventis, priority 2003, dated 2010)
